In patent US7087623B2, “Thiazole and other heterocyclic ligands for mammalian dopamine, muscarinic and serotonin receptors and transporters, and methods of use thereof” (Sepracor Inc., priority 2001, dated 2006):
Like-named read-outs stand apart in the source and are kept apart here.

Columns and labels:
[1] = molecular target: T1, human dopamine D3 receptor (Homo sapiens, UniProt P35462); experiment: Radioligand binding assay, human dopamine D3 receptors ([3H]Spiperone)
T1 construct: expressed in transfected cells; host or cells: CHO
T1 sequence (P35462 whole entry): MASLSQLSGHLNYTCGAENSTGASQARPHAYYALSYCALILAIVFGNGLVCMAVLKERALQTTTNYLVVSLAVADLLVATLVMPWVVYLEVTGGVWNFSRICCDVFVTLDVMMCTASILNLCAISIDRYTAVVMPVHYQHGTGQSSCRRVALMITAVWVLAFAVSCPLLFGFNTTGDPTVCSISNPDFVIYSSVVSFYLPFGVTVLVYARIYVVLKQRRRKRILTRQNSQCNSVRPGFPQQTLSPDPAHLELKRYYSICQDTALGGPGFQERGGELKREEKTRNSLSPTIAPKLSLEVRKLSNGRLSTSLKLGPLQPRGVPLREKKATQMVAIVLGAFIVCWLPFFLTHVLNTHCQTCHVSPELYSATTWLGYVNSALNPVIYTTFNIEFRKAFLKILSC
Protocol: The assay for binding to human D3 receptors was conducted according to Sokoloff, P. et al. Nature 1990, 347, 146.
CHO cells stably transfected with a plasmid encoding the human dopamine D3 receptor were used to prepare membranes in modified Tris-HCl pH 7.4 buffer using standard techniques. […] Non-specific binding was estimated in the presence of 25 μM S-(−)-sulpiride. […] See Sokoloff, P. et al. “Molecular cloning and characterization of a novel dopamine receptor (D3) as a target for neuroleptics” Nature 347: 146–151, 1990.
(§1) The human 5-HT2a and 5-HT2b screens were conducted according to Bonhaus, D. W. et al. Br. J. Pharmacol. 1995, 115, 622. The human […], W. A. et al. J. Neurochem. 1997, 69, 1449. The human 5-HT6 screen was conducted according to Monsama, F. J. et al. Mol. Pharmacol. 1993, 43, 320. The assay to human D3 receptors was conducted according to Sokoloff, P. et al. Nature 1990, 347;146. The human dopamine transporter assay was conducted according to Gu, H. et. al. J. Biol. Chem. 1994, 269 (10);7124; and Giros, B. et al. Trends. Pharmacol. Sci. 1993, 14: 43. The human muscarinic M1–M4 screens were conducted according to Buckley N. J. et al. Mol. Pharmacol. 1989, 35:469.

[2] = molecular target: T2, human serotonin 5-HT6 receptor (Homo sapiens, UniProt P50406); experiment: Radioligand binding assay, human 5-HT6 receptors ([3H]LSD); conditions: read-out: IC50 (nM) 5-HT6
T2 construct: expressed in transfected cells; host or cells: HeLa/E6-7
T2 sequence (P50406 whole entry): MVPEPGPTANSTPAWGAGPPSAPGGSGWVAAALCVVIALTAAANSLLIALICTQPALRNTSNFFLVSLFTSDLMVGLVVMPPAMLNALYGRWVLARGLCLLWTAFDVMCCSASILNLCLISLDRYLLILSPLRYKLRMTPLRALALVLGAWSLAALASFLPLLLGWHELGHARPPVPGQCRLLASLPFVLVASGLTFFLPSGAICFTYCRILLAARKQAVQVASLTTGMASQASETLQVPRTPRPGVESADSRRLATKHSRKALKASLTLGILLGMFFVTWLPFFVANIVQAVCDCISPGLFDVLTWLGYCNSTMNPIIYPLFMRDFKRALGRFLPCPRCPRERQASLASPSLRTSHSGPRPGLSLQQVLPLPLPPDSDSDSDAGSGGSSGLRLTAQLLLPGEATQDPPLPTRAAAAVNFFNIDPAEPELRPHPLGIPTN
Protocol: (§2) The human 5-HT2a and 5-HT2b screens were conducted according to Bonhaus, D. W. et al. Br. J. Pharmacol. 1995, 115, 622. The human 5-HT2c screen was conducted according to Wolf, W. A. et al. J. Neurochem. 1997, 69, 1449. The human 5-HT6 screen was conducted according to Monsma, F. J. et al. Mol. Pharmacol. 1993, 43, 320.
This assay measures binding of [^3H]LSD (lysergic acid diethylamide) to human serotonin 5-HT6 receptors. HeLa/E6–7 cells stably transfected with a plasmid encoding the human serotonin 5-HT6 receptor were used to prepare membranes in modified Tris-HCl pH 7.4 buffer using standard techniques. A 30 μg aliquot of membrane was incubated with 1.5 nM [^3H]LSD for 120 minutes at 37° C. Non-specific binding was estimated in the presence of 5 μM 5-HT. Membranes were filtered and washed 3 times and the filters were counted to determine [^3H]LSD specifically bound. See Monsma, Jr., F. J. et al. “Cloning and expression of a novel serotonin receptor with high affinity for tricyclic psychotropic drugs” Mol. Pharmacol. 43: 320–327, 1993.
as §1

[3] = molecular target: T3, human serotonin 5-HT2A receptor (Homo sapiens, UniProt P28223); experiment: Radioligand binding assay, human 5-HT2A receptors ([3H]Ketanserin)
T3 construct: expressed in transfected cells; host or cells: CHO-K1
T3 sequence (P28223 whole entry): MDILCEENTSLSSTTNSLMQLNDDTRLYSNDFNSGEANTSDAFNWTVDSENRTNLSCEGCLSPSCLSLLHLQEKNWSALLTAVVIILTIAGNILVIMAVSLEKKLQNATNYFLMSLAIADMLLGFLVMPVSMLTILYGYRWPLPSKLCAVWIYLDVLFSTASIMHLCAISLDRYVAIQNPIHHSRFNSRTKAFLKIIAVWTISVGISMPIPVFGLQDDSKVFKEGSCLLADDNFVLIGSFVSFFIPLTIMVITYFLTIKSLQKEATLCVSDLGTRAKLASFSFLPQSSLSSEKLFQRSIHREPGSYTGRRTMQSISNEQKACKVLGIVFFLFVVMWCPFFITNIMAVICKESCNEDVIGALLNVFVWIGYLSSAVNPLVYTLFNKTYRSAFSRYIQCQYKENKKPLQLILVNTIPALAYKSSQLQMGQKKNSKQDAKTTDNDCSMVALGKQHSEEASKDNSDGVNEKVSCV
Protocol: as §2
CHO-K1 cells stably transfected with a plasmid encoding the human serotonin 5-HT2A receptor were used to prepare membranes in modified Tris-HCl pH 7.7 buffer using standard techniques. […] Non-specific binding was estimated in the presence of 1 μM mianserin. […] See Bonhaus, D. W. et al. “The pharmacology and distribution of human 5-hydroxytryptamine2B (5-HT2B) receptor gene products: comparison with 5-HT2A and 5-HT2C receptors” Brit. J. Pharmacol. 115: 622–628, 1995; and Saucier, C and Albert, P. R. “Identification of an endogenous 5-hydroxytryptamine2A receptor in NIH-3T3 cells: agonist-induced down-regulation involves decreases in receptor RNA and number” J. Neurochem. 68: 1998–2011, 1997.
as §1

[4] = molecular target: T4, human serotonin 5-HT2C receptor (Homo sapiens, UniProt P28335); experiment: Radioligand binding assay, human 5-HT2C receptors ([3H]Mesulergine)
T4 construct: expressed in transfected cells; host or cells: CHO-K1
T4 sequence (P28335 33-458): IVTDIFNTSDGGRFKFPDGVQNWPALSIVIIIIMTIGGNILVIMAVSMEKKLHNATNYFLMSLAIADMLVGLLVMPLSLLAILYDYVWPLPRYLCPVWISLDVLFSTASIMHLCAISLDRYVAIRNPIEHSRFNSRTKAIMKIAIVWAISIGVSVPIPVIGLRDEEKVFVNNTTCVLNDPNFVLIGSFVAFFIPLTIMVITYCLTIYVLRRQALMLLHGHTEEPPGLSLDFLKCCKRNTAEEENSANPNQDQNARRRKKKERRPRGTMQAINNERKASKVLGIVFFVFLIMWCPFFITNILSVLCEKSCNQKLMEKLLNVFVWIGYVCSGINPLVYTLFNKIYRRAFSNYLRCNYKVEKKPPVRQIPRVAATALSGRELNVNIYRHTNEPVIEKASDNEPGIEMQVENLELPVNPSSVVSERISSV
Protocol: as §2
CHO-K1 cells stably transfected with a plasmid encoding the human serotonin 5-HT2C receptor were used to prepare membranes in modified Tris-HCl pH 7.7 buffer using standard techniques. […] Non-specific binding was estimated in the presence of 1 μM mianserin. […] See Wolf, W. A. and Schutz, J. S. “The serotonin 5-HT2C receptor is a prominent serotonin receptor in basal ganglia: evidence from functional studies on serotonin-mediated phosphoinositide hydrolysis” J. Neurochem. 69: 1449–1458, 1997.
as §1

[5] = molecular target: T5, human serotonin 5-HT2B receptor (Homo sapiens, UniProt P41595); experiment: Radioligand binding assay, human 5-HT2B receptors ([3H]LSD); conditions: human 5-HT2b; Example 16 table; read-out: IC50 (nM) 5-HT2b
T5 construct: expressed in transfected cells; host or cells: CHO-K1
T5 sequence (P41595 whole entry): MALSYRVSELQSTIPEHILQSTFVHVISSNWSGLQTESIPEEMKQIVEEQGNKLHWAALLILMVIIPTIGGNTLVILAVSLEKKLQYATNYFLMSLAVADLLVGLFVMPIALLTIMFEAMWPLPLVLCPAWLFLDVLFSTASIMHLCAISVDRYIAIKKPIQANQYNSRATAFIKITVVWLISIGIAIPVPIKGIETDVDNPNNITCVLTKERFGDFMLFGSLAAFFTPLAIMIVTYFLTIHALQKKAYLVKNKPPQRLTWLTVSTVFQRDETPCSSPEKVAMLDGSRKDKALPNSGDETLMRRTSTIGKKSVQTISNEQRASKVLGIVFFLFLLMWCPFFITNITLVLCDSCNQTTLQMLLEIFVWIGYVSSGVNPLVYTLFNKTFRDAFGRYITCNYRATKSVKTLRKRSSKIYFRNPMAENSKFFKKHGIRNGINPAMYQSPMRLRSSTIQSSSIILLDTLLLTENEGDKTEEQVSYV
Protocol: This assay measures binding of [^3H]LSD to human serotonin 5-HT2B receptors. CHO-K1 cells stably transfected with a plasmid encoding the human serotonin 5-HT2B receptor were used to prepare membranes in modified Tris-HCl pH 7.4 buffer using standard techniques. […] Non-specific binding was estimated in the presence of 10 μM serotonin. Membranes were filtered and washed 3 times and the filters were counted to determine [^3H]LSD specifically bound. See Bonhaus, D. W. et al. “The pharmacology and distribution of human 5-hydroxytryptamine2B (5-HT2B) receptor gene products: comparison with 5-HT2A and 5-HT2C receptors” Brit.
The human 5-HT2b screen was conducted according to Wolf, W. A. et al. J. Neurochem.

[6] = human, Example 100 table, read-out: IC50 (nM) D3
[7] = human, Example 100 table, read-out: IC50 (nM) 5-HT2A
[8] = human, Example 100 table, read-out: IC50 (nM) 5-HT2C

Row | SMILES | IC50 [1, 6] | IC50 ([2]; human, Example 100 table) | IC50 [3, 7] | IC50 [4, 8] | other results
1 | CN(C)C1CCN(c2nc(C3(c4ccccc4F)CCCCC3)cs2)C1 (racemic) [Compound 136, (1-{4-[1-(2-Fluoro-phenyl)-cyclohexyl]-thiazol-2-yl}-pyrrolidin-3-yl)-dimethylamine] | > 1000 nM | > 1000 nM |  |  | 
2 | Clc1ccc(C2(c3csc(NCCCN4CCOCC4)n3)CCC2)cc1 [Compound 21, {4-[1-(4-chlorophenyl)-cyclobutyl]thiazol-2-yl}-(3-morpholin-4-yl-propyl)amine] |  |  |  |  | IC50 ([1]; Example 20 table, read-out: IC50 (nM) Against Human D3 Receptors): > 1000 nM; IC50 [5]: < 1000 nM; IC50 ([2]; human 5-HT6, Example 16 table): > 1000 nM; IC50 ([3]; human 5-HT2a, Example 16 table, read-out: IC50 (nM) 5-HT2a): > 1000 nM; IC50 ([4]; human 5-HT2c, Example 16 table, read-out: IC50 (nM) 5-HT2c): < 1000 nM
3 | Clc1ccc(C2(c3csc(NCCCN4CCOCC4)n3)CCCCC2)cc1 [Compound 94, {4-[1-(4-chloro-phenyl)-cyclohexyl]-thiazol-2-yl}-(3-morpholin-4-yl-propyl)-amine] | > 1000 nM | < 1000 nM | > 1000 nM | < 1000 nM | 
4 | Fc1ccccc1C1(c2csc(NCCCN3CCOCC3)n2)CCCC1 [Compound 96] | > 1000 nM | > 1000 nM | > 1000 nM | > 1000 nM | 
5 | COc1ccccc1N1CCN(c2nc(C3(c4ccccc4F)CCCCC3)cs2)CC1 [Compound 97] | > 1000 nM | > 1000 nM | > 1000 nM | > 1000 nM | 
6 | CCN(CC)CCCNc1nc(C2(c3cccc(Cl)c3)CCOCC2)cs1 [Compound 98, N-{4-[4-(3-chloro-phenyl)-tetrahydro-pyran-4yl]-thiazol-2-yl}-N,N-diethyl-propane-1,3-diamine] | > 1000 nM | > 1000 nM |  |  | 
7 | Clc1ccc(C2(c3csc(NCCCN4CCOCC4)n3)CCCC2)cc1 [Compound 100] | > 1000 nM | < 1000 nM | > 1000 nM | < 1000 nM | 
8 | Clc1ccc(C2(c3csc(NCCN4CCOCC4)n3)CCCCC2)cc1 [Compound 102] | > 1000 nM | < 1000 nM |  |  | 
9 | CNC1CCN(c2nc(C3(c4ccc(Cl)cc4)CCCCC3)cs2)C1 (stereo not drawn) [Compound 106] | > 1000 nM | > 1000 nM | > 1000 nM | > 1000 nM | 
10 | Fc1ccccc1C1(c2csc(N3CCN(Cc4ccc(Cl)cc4)CC3)n2)CCCC1 [Compound 110] | > 1000 nM | > 1000 nM |  |  | 
11 | CCN(CC)CCCNc1nc(C2(c3ccccc3F)CCCC2)cs1 [Compound 114] | > 1000 nM | > 1000 nM |  |  | 
12 | CN(C)C1CCN(c2nc(C3(c4ccc(Cl)cc4)CCCCC3)cs2)C1 (stereo not drawn) [Compound 117] | > 1000 nM | > 1000 nM |  |  | 
13 | CN(C)C1CCN(c2nc(C3(c4ccc(Cl)cc4)CCCC3)cs2)C1 (stereo not drawn) [Compound 118] | > 1000 nM | < 1000 nM |  |  | 
14 | Clc1ccc(C2(c3csc(NC4CCN(Cc5ccccc5)C4)n3)CCCCC2)cc1 (stereo not drawn) [Compound 119] | > 1000 nM | > 1000 nM |  |  | 
15 | Clc1ccc(C2(c3csc(N4CCOCC4)n3)CCOCC2)cc1 [Compound 124, 4-{4-[4-(4-Chloro-phenyl)-tetrahydro-pyran-4-yl]-thiazol-2-yl}-morpholine] | > 1000 nM | > 1000 nM | > 1000 nM | > 1000 nM | 
16 | Fc1ccccc1C1(c2csc(N3CCNCC3)n2)CCCCC1 [Compound 127, 1-{4-[1-(2-Fluorophenyl)-cyclohexyl]-thiazol-2-yl}-piperazine] | < 1000 nM | < 100 nM |  |  | 

Further lines, with some results ahead:

Row | IC50 [1, 6] | IC50 ([2]; human, Example 100 table) | SMILES | IC50 [3, 7] | IC50 [4, 8] | other results
17 | < 1000 nM | < 1000 nM | CCN1CCCC1CNc1nc(C2(c3ccccc3F)CCCCC2)cs1 (racemic) [Compound 131, (1-ethyl-pyrrolidin-2-ylmethyl)-{4-[1-(2-fluorophenyl)-cyclohexyl]-thiazol-2-yl}-amine] |  |  | 
18 | < 1000 nM | < 1000 nM | CN1CCCC1CCNc1nc(C2(c3ccccc3F)CCCCC2)cs1 (single isomer, unassigned) [Compound 129, {4-[1-(2-fluorophenyl)-cyclohexyl]-thiazol-2-yl}-[2-(1-methyl-pyrrolidin-2-yl)-ethyl]-amine] | < 1000 nM | < 1000 nM | 
19 | < 1000 nM | < 1000 nM | CN1CCCC1CCNc1nc(C2(c3ccc(Cl)cc3)CCCCC2)cs1 (stereo not drawn) [Compound 95, {4-[1-(4-chloro-phenyl)-cyclohexyl]-thiazol-2-yl}-[2-(1-methyl-pyrrolidin-2-yl)-ethyl] amine] | < 1000 nM | < 1000 nM | 
20 | < 1000 nM | < 1000 nM | Clc1ccc(C2(c3csc(NCCN4CCCCC4)n3)CCCC2)cc1 [Compound 101] |  |  | 
21 | < 1000 nM | < 1000 nM | CCN(CC)CCCNc1nc(C2(c3ccc(Cl)cc3)CCCCC2)cs1 [Compound 103] | < 1000 nM | < 1000 nM | 
22 | < 100 nM | < 1000 nM | CN1CCCN(c2nc(C3(c4ccc(Cl)cc4)CCCC3)cs2)CC1 [Compound 105] | < 1000 nM | < 1000 nM | 
23 | < 1000 nM | > 1000 nM | Clc1ccc(C2(c3csc(N4CCC(N5CCCCC5)CC4)n3)CCCCC2)cc1 [Compound 107] |  |  | 
24 | < 1000 nM | < 100 nM | CN1CCC(N(C)c2nc(C3(c4ccc(Cl)cc4)CCCCC3)cs2)C1 (stereo not drawn) [Compound 108] |  |  | 
25 | < 1000 nM | < 100 nM | Clc1ccc(C2(c3csc(N4CCNCC4)n3)CCCC2)cc1 [Compound 109] |  |  | 
26 | < 1000 nM | < 1000 nM | CN1CCCN(c2nc(C3(c4ccc(Cl)cc4)CCCCC3)cs2)CC1 [Compound 115] |  |  | 
